The subject of data set [1] is rat intestinal microbial culture. Description: Metabolism of paeoniflorin by intestinal bacteria in vitro. The conditions noted are these: 24-h incubation. In kind it is in vitro ADME. The procedure:
The colon contents of six rats were pooled, and 5 g of the sample was transferred to a ziplock bag and then mixed thoroughly with anaerobic medium (100 mL). After mixing completely, the cultures were stored at 37°C and preincubated for 1 h. Then, 10 μL of paeoniflorin (100 mg/mL) was added to fresh rat intestinal microbial culture (990 μL) under anaerobic conditions of N2, with a final concentration of 1 mg/mL of paeoniflorin in the culture system ([Hattori et al., 1988]). The inactivated bacteria solution was used as a negative control. Cultures were incubated at 37°C for 0, 2, 6, 12, and 24 h, respectively. After terminated the reaction with 3 volumes of acetonitrile, samples were vortexed for 30 s and then centrifuged at 16,162 g for 5 min. A total of 100 μL of the supernatant were transferred to a centrifuge tube, centrifuged at 16,162 g for 5 min and filtered through a 0.45 μm microporous membrane. Finally, 5 μL of the filtrate solution was collected for analysis.

The subject of the next data set is gut microbiota. Description: Analysis of microbial diversity by 16S rRNA gene sequencing. The conditions noted are these: depression model rats, oral 20 mg/kg, 2 weeks of treatment. In kind it is in vivo, rat. The procedure: Rat feces of the chronic unpredictable depression model group were collected after 2 weeks of treatment. Three groups, including the normal control group, the model control group, the paeoniflorin treatment group (oral, 20 mg/kg) were selected. Barcoded pyro sequencing analysis was performed on the V3 and V4 regions by 16S rRNA gene sequencing.

Consider `C[C@@]12C[C@@]3(O)O[C@@H](O1)[C@]1(COC(=O)c4ccccc4)[C@H]3C[C@@]12O[C@@H]1O[C@H](CO)[C@@H](O)[C@H](O)[C@H]1O` [Paeoniflorin], for which the “transformation of paeoniflorin in intestinal bacteria” value in data set [1] (37°C, anaerobic, 1 mg/mL paeoniflorin, normal gut bacteria) is given as “completely transformed”. In data set [1] (inactivated bacteria solution), the “metabolism of paeoniflorin in inactivated gut bacteria (control group)” value is on record as “not metabolized”. Moreover, in the data set with gut microbiota, the “abundance of Facklamia, Jeotgalicoccus, Ruminiclostridium_5 and Eubacterium_coprostanoligenes_group in feces” value was “decreased”; the “abundance of Lactobacillus, Lachnospira, Eubacterium_ruminantium_group and Roseburia in feces” value was “increased”.
